Data on 3 compounds can be found in patent US12145947B2, “Pyrimidine based modulators and uses thereof” (Quanta Therapeutics, Inc., priority 2022, dated 2024).

In test [1] the test system is GP2D cells (KRAS G12D), phospho-ERK. Kind of test: pERK In Cell Western (ICW) assay, GP2D cells. The note with it: Table 4, 3 hours. The format is cell-based. Summed up:
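GP2D (10,000 cells/well) and AGS (5,000 cells/well) cells were treated for 3 h at 37 °C with a 10-point, ½-log dilution series (top […]). They were then fixed and immunostained for phospho-ERK. pERK signal was normalised to DRAQ5 and expressed as % of DMSO, with IC50 from a 4-parameter fit.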

The target of test [2] is T1, GST-tagged KRAS-G12D (2-169) (Homo sapiens, UniProt P01116, G12D).
T1 construct: GST-tagged KRAS-G12D (2-169, Reaction Biology, MSC-11-539); purchased Reaction Biology MSC-11-539 (KRAS G12D); MSC-11-502 (SOS1cat)
Kind of test: Nucleotide exchange assay (NEA), SOS-mediated, HTRF, KRAS G12D. The format is biochemical. The note with it: Table 4; IC50 extracted at 30 min. Summed up: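 GST-KRAS-G12D (2-169, 5 nM final) with Tb-anti-GST donor was preincubated with compound 1 h at RT (pH 7.3 HEPES buffer, MgCl2, DTT), then SOScat (564-1049, 20 nM) and GTP-DY-647P1 (150 nM) were added. HTRF was read at RT; % inhibition vs DMSO/no-SOS blank, 4-parameter IC50 taken at 30 min.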
On the technique in general: TR-FRET usually uses a lanthanide donor and a delayed reading to cut background.

T1 sequence (P01116 2-169 isoform P01116-2 G12D): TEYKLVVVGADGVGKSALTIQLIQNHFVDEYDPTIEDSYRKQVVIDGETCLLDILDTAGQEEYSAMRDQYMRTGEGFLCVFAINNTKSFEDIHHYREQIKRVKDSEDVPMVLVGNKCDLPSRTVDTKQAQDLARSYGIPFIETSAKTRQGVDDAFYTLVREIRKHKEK

A word on the IC50: it is the concentration needed to halve the response being measured. The low end stands for greater potency, the high end for weaker potency. In the case of `N#Cc1c(N2C[C@H]3CC[C@@H](C2)N3)nc(OCC2(CN3CCOCC3)CC2)nc1N1CC2(C1)SCc1sc(N)c(C#N)c12` [Compound 100, 2-amino-1′-[5-cyano-6-[(1R,5S)-3,8-diazabicyclo[3.2.1]octan-3-yl]-2-[[1-(morpholinomethyl)cyclopropyl]methoxy]pyrimidin-4-yl]spiro[6H-thieno[2,3-c]thiophene-4,3′-azetidine]-3-carbonitrile], the half-maximal inhibitory concentration (IC50) in test [1] is 1 to 10 nM; in test [2], under 10 nM.

Consider `N#Cc1c(N2C[C@H]3CC[C@@H](C2)N3)nc(OCC2(CN3CCOCC3)CC2)nc1N1CC2(C1)c1c(sc(N)c1C#N)CC2F` (stereo partly drawn) [Compound 101, 2-amino-1′-[5-cyano-6-[(1R,5S)-3,8-diazabicyclo[3.2.1]octan-3-yl]-2-[[1-(morpholinomethyl)cyclopropyl]methoxy]pyrimidin-4-yl]-5-fluoro-spiro[5,6-dihydrocyclopenta[b]thiophene-4,3′-azetidine]-3-carbonitrile], for which the 50% inhibitory concentration (IC50) was 1 to 10 nM in test [1] and under 10 nM in test [2].

Take `Cc1n[nH]nc1COc1nc(N2C[C@H]3CC[C@@H](C2)N3)c(C#N)c(N2CC3(CCc4sc(N)c(C#N)c43)C2)n1` [Compound 108]: the concentration for half-maximal inhibition (IC50) in test [1] lay within 1000 to 10000 nM; in test [2] it was 10 to 100 nM.
